These results are taken from US6369228B2, “Aroyl aminoacyl pyrroles for use in the treatment of neuropathic pain” (Ortho-McNeil Pharmaceutical, Inc., priority 1999, dated 2002).

The conditions of data set [1]: literature pilot study; cited from earlier work.
For data set [2] the following is noted: cited patent; cited from earlier work.

Structures can show the parent of a compound that is named as a salt.

With `Cn1cc(C(=O)c2ccc(Cl)cc2)cc1C(=O)CN1CCCC1` (as salt: hydrochloride), the melting point (usually the temperature of the solid-liquid transition) lay within 265 to 267 °C.
Regarding `Cn1cc(C(=O)CN)cc1C(=O)c1ccc(Cl)cc1` (as salt: hydrochloride), the melting point was 290 °C (dec.).
Still for that read-out and setting: the value for `Cn1cc(C(=O)c2ccc(Cl)cc2)cc1C(=O)CN1CCOCC1` (as salt: hydrochloride) [13-1, 1-[4-(4-Chlorobenzoyl)-1-methyl-1H-pyrrol-2-yl]-2-(1-morpholino)-ethanone hydrochloride] was 264 to 267 °C.
Molecule `Cn1cc(C(=O)c2ccc(Cl)cc2)cc1C(=O)CN1CCCCC1` [Example 12, 1-[4-(4-Chlorobenzoyl)-1-methyl-1H-pyrrol-2-yl]-2-(1-piperidinyl)-ethanone] registered a melting point of 129 to 130 °C.
As to `NCC1(CC(=O)O)CCCCC1` [Gabapentin], in data set [1], the “effect on brush-induced and cold allodynia” value is on record as “significantly effective”; the “effect on detection and pain thresholds to static mechanical and hot stimuli” value was “no effect”; the reducing paroxysmal pain entry is listed as “particularly effective”; the “relief of ongoing spontaneous pain” value is “moderate and statistically significant relief”.
As for `CC1(C)O[C@@H]2[C@@H](CO[C@@]3(COS(N)(=O)=O)OC(C)(C)O[C@@H]23)O1` [topiramate], the “efficacy in an animal model of neuropathic pain” value in data set [2] is listed as “evidence of pharmacological activity”.
